Reference: US10253322B2, “Method for the production of transgenic plants” (MONSANTO TECHNOLOGY LLC, priority 2001, dated 2019)

Assays:
wheat mesocotyl explants [1] = assay: Multiple shoot production with cytokinins alone, wheat mesocotyl explants; type: cell-based; conditions: cytokinin 5 mg/L, 32 days after culture
Protocol: A. Wheat mesocotyl explant: Mature wheat seeds were surface sterilized first in 70% ethanol for 1 min. and then soaked in 20% CLOROX® (5.25% sodium hypochlorite) and shaken at 250 rpm for 20 min. The seeds were then rinsed five times with sterile distilled water and then placed in 100×25 mm petri dishes containing a sterile piece of felt and ˜15 mL of double distilled sterile water with 5 μM BA for germination. The seeds were cultured for 1 day in darkness at ˜24° C. Mesocotyl sections about 2-3 mm in length were then excised by removing the upper portion of the coleoptile, approximately 1-1.5 mm in length, and root tissue around the crown region. These mesocotyl explants contain at least several different and distinct meristems, such as a scutellar node, a coleoptile node, a first leaf bud and possibly several leaf nodes, and an apical meristem. This mesocotyl explant thus comprises an apical meristem and several axillary meristems, including the scutellar node meristem. […] It is also important that the explants have all of the described meristems intact after excision, in order to maximize multiple bud response in culture.
Wheat explants such as mesocotyl sections from seedlings, mature embryos from mature seeds, and immature embryos from immature seeds were cultured on multiple shoot inducing media comprising combinations of cytokinins, auxins and abscisic acid (ABA). […] The particular media compositions used for this invention are described in detail in Table 1. The mesocotyl explants were placed on media with the acropetal end up, and mature and immature embryo explants were placed on media with the scutellum-side up. […]
For the first three weeks, the explants were usually trimmed, by removing the top portion of coleoptile 3-5 mm above the crown region for wheat, every 3 to 5 days to inhibit dominant growth.
Four different cytokinins, not in combination with auxin, were tested for their ability to induce multiple shoot induction on wheat mesocotyl explants: BA, kinetin, zeatin and TDZ.

[2] = tested on: shoots from Bobwhite mesocotyl explants; assay: Root induction of elongated shoots; type: cell-based, wheat; conditions: IBA 1 mg/L
Protocol: Usually three to five weeks after the induction stage culture described above, multiple bud clumps were divided and transferred to a shoot elongation medium, and cultured under 16 h photoperiod at about 25° C. for 3 to 4 weeks. The shoot elongation medium comprised MS basal medium supplemented with ascorbic acid at 100 mg/L, 2-[N-Morpholino]ethanesulfonic acid (MES) at 1.95 g/L, casein hydrolysate at 100 mg/L, maltose at 40 g/L, and Schweizer-Hall® gelling agent at 2 g/L. The elongated shoots were transferred to a rooting medium, comprising MS basal medium supplemented with IBA at 1 mg/L, ascorbic acid at 100 mg/L, 2-[N-Morpholino] ethanesulfonic acid (MES) at 1.95 g/L, casein hydrolysate at 100 mg/L, maltose at 40 g/L, and Schweizer-Hall® gelling agent at 2 g/L, for 3 to 4 weeks, after which sufficient roots had formed to transfer the shoots to soil.
Three genotypes were tested to evaluate shoot elongation from the buds induced in the above described multiple shoot induction step. Bobwhite, 251BW012 and Autry525 were chosen as representative standard, good and poor lines respectively, based on a previous study of embryogenic regeneration capacity. The buds were removed from the media containing the growth regulator combination described in the induction stage, after about 3-5 weeks of culture. […]

wheat mesocotyl explants [3] = assay: Multiple bud induction from primary meristems on multiple shoot inducing media, wheat mesocotyl explants; type: cell-based; conditions: 4 weeks after culture initiation (Table 3)
Protocol: A. Wheat mesocotyl explant: Mature wheat seeds were surface sterilized first in 70% ethanol for 1 min. and then soaked in 20% CLOROX® (5.25% sodium hypochlorite) and shaken at 250 rpm for 20 min. The seeds were then rinsed five times with sterile distilled water and then placed in 100×25 mm petri dishes containing a sterile piece of felt and ˜15 mL of double distilled sterile water with 5 μM BA for germination. The seeds were cultured for 1 day in darkness at ˜24° C. Mesocotyl sections about 2-3 mm in length were then excised by removing the upper portion of the coleoptile, approximately 1-1.5 mm in length, and root tissue around the crown region. These mesocotyl explants contain at least several different and distinct meristems, such as a scutellar node, a coleoptile node, a first leaf bud and possibly several leaf nodes, and an apical meristem. This mesocotyl explant thus comprises an apical meristem and several axillary meristems, including the scutellar node meristem. It is important when excising the mesocotyl explant to leave a whole piece of the scutellum attached to the explant, because the scutellar node meristem contributes a large primary meristem from which upwards of 100 buds can be produced via the method of the present invention, relative to the small primary meristems contributed by the other meristems from which a smaller number of buds can be produced. […]

[4] = (D) continuous dark first two weeks, then light 16/8 two weeks
[5] = (L) 16 h photoperiod for four weeks

Compound | % of explants producing 2-5 shoots (each from a single primary meristem) (wheat mesocotyl explants [1]; [4]) [%] | % of explants producing multiple shoots from a single primary meristem (wheat mesocotyl explants [1]; [4]) [%] | % of explants producing 2-5 shoots (each from a single primary meristem) (wheat mesocotyl explants [1]; [5]) [%] | % of explants producing multiple shoots from a single primary meristem (wheat mesocotyl explants [1]; [5]) [%] | % shoots producing roots [2] | % explants producing 20-80 buds/primary meristem (wheat mesocotyl explants [3]) [%] | No. primary meristems produced/explant (wheat mesocotyl explants [3])
C/C(=C\CNc1ncnc2[nH]cnc12)CO [Zeatin, zeatin] | 45.0 | 0 | 20.0 | 0 | – | – | –
O=C(O)CCCc1c[nH]c2ccccc12 [IBA, 3-indolebutyric acid] | – | – | – | – | significantly increased the rooting response | – | –
c1ccc(CNc2ncnc3nc[nH]c23)cc1 [BA, 6-benzylaminopurine] | 15.0 | 0 | 10.0 | 0 | – | – | –
c1coc(CNc2ncnc3[nH]cnc23)c1 [Kinetin, kinetin] | 23.8 | 0 | 20.0 | 0 | – | – | –
O=C(Nc1ccccc1)Nc1cnns1 [TDZ, thidiazuron] | 76.2 | 0 | 80.0 | 0 | – | 0 | 2-5
